Assay results reported in patent publication US6251882A, “Alkyl ketones as potent anti-cancer agents” (Parker Hughes Institute, priority 1999, dated 2001).

What was measured:
U373 glioblastoma cells = test: Cell invasion assay (Matrigel-coated Boyden chambers), U373; assay type: cell-based, human; conditions: through Matrigel matrix, 1 μM to 25 μM, 48 hours (FIG. 5)
Procedure: (§1) The in vitro invasiveness of MDA-MB-231 breast cancer cells and U373 glioblastoma cells was assayed using a previously published method which employs Matrigel-coated Costar 24-well transwell cell culture chambers ("Boyden chambers") with 8.0-μm-pore polycarbonate filter inserts (Albini, et al., 1987, Cancer Res., 47:3239-3245). The chamber filters were coated with 50 μg/ml of Matrigel matrix, incubated overnight at room temperature under a laminar flow hood and stored at 4° C. Matrigel matrix is made up of several components of the extracellular matrix (ECM), including collagens, laminin and proteo-glycans.
(§2) On the day of the experiment, the coated inserts were rehydrated with 0.5 ml serum-free DMEM containing 0.1% bovine serum albumin for 1-2 hours. […] The cells were trypsinized, washed twice with serum-free DMEM containing BSA, counted and resuspended at 1×10^5 cells/ml. […] The invasive cells that migrated to the lower side of the filter were fixed, stained with Hema-3 solutions and counted under microscope. Five to 10 random fields per filter were counted to determine the mean (SE) values for the invasive fraction. The invasive fractions of cells treated with HI-131 were compared to those of DMSO treated control cells and the percent invading relative to the control was determined using the formula: [formula]
(§3) Each treatment condition was evaluated in duplicate in 3 independent experiments. […]

[1] = tested on: MDA-MB-231 breast cancer cells; test: Cell invasion assay (Matrigel-coated Boyden chambers), MDA-MB-231; assay type: cell-based, human; conditions: through Matrigel matrix, 2.5 μM to 25 μM, 48 hours (FIG. 4)
Procedure: as §1, §2, §3

primary leukemia cells = test: MTT cytotoxicity in primary cancer cells from six children with leukemia; assay type: cell-based, human; conditions: 0 to 50 μM, all six patients
Procedure: (§4) Cytotoxicity of various compounds against tumor cells was performed using the MTT (3-[4,5-[…]]-2,5-diphenyl tetrazolium bromide) assay (Boehringer Mannheim Corp., Indianapolis, Ind.). Unless otherwise specified, all cell lines were obtained from the American Type Culture Collection (ATCC). Briefly, exponentially growing cells were seeded into a 96-well plate at a density of 2.5×10^4 cells/well and incubated for 36 hours at 37° C. prior to drug exposure. On the day of treatment, culture medium was carefully aspirated from the wells and replaced with fresh medium containing the indicated compound at concentrations ranging from 0.1 to 250 μM. Triplicate wells were used for each treatment.
The cells were incubated with the various compounds for 24-36 hours at 37° C. in a humidified 5% CO2 atmosphere. […] The absorbence of each well was measured in a microplate reader (Labsystems) at 540 nm and a reference wavelength of 690 um. […] The percent survival was calculated using the formula: [formula]
The cytotoxicity of HI-131 against primary cancer cells was evaluated in leukemia cells taken from six children (FIG. 1A), using the MTT assay described for Example 3. […] Percent survival was calculated as described for Example 3 and plotted against the HI-131 concentration used in the experiment. […]

PC-3 (prostate cancer) = test: MTT cytotoxicity assay, PC-3; assay type: cell-based; conditions: 24-36 hours at 37° C., 0.1 to 250 μM
Procedure: as §4
(§5) The cells were incubated with the various compounds for 24-36 hours at 37° C. in a humidified 5% CO2 atmosphere. To each well, 10 μl of MTT (0.5 mg/ml final concentration) was added and the plates were incubated at 37° C. for 4 hours to allow MTT to form formazan crystals by reacting with metabolically active cells. The formazan crystals were solubilized overnight at 37° C. in a solution containing 10% SDS in 0.01 M HCl. The absorbence of each well was measured in a microplate reader (Labsystems) at 540 nm and a reference wavelength of […]. To translate the OD540 values into the number of live cells in each well, the OD540 values were compared to those on standard OD540 --versus--cell number curves generated for each cell line. The percent survival was calculated using the formula: [formula]
(§6) The IC50 values were calculated by non-linear regression analysis and are shown below in Tables 1-6.

Nalm-6 (B-lineage ALL) = test: MTT cytotoxicity assay, Nalm-6; assay type: cell-based; conditions: Homo sapiens, 24-36 hours at 37° C., 0.1 to 250 μM
Procedure: as §4
(§7) Human leukemic cell lines (NALM-6, MOLT-3) glioblastoma cells (U373) and human breast tumor cell lines (BT20 and MDA-MB-231) were obtained from the American Type Culture Collection and maintained as a continuous cell line in Dulbecco's modified Eagles's medium supplemented with 10% fetal bovine serum and antibiotics.
as §5, §6

Molt-3 (T-lineage ALL) = test: MTT cytotoxicity assay, Molt-3; assay type: cell-based, human; conditions: MTT, 24-36 hours at 37° C., 0.1 to 250 μM
Procedure: as §4, §7, §5, §6

CCCCCCCCCCCCSC[C@H](NC(C)=O)C(=O)CCl [HI-131, N-Ac-S-dodecyl-Cys chloromethyl ketone]
inhibition of invasion, U373 (U373 glioblastoma cells): inhibited the invasion
inhibition of invasion, MDA-MB-231 [1]: inhibited the invasion
cytotoxic effect in primary cancer cells (primary leukemia cells): dose dependent cytotoxic effect
IC50 (PC-3 (prostate cancer)): 22100 nM
IC50 (Nalm-6 (B-lineage ALL)): 2000 nM
IC50 (Molt-3 (T-lineage ALL)): 2300 nM
